Reference: publication PMC4184702 (Pharmacology Research & Perspectives, 2014)
pKi: −log10 of the molar value.

Legend:
[1] = molecular target: T1, SERT: Serotonin Transporter (Homo sapiens, UniProt P31645); experiment: PDSP primary binding, SERT; details: n = 4, read-out: Inhibition (primary binding competition efficacy), SERT
T1 construct: purchased NIMH Psychoactive Drug Screening Program (PDSP)
Experimental: (§1) For experimental details, please refer to the Psychoactive Drug Screening Program (PDSP) web site http://pdsp.med.unc.edu/.
(§2) ^a The default concentration for primary binding experiments is 10 µM (n = 4). ^b Negative inhibition represents a stimulation of binding. ^c BZPR: Benzodiazepine Receptors (rat brain site). ^d DOR: Delta Opioid Receptor; KOR: Kappa Opioid Receptor; MOR: Mu Opioid Receptor. ^e DAT: Dopamine Transporter; NET: Norepinephrine Transporter; SERT: Serotonin Transporter. ^f NMDA: N-methyl-D-aspartate receptor.

CYP1A = molecular target: T2, CYP1A (Homo sapiens, UniProt P05177); experiment: CYP1A inhibition, HLM, phenacetin substrate; assay type: in vitro ADME; details: 1.0E-05 M
T2 construct: from tissue; host or cells: human liver microsomes (HLM)
Description: (§3) Supplement prp20002-e00026-sd1.doc, table 3: Table 3.

5-HT1D = molecular target: T3, 5-HT1D (Homo sapiens, UniProt P28221); experiment: PDSP primary binding, 5-HT1D; details: n = 4, read-out: Inhibition (primary binding competition efficacy), 5-HT1D
T3 construct: purchased NIMH Psychoactive Drug Screening Program (PDSP)
Experimental: as §1, §2

Oxytocin = molecular target: T4, Oxytocin (Homo sapiens, UniProt P30559); experiment: PDSP primary binding, Oxytocin; details: n = 4, read-out: Inhibition (primary binding competition efficacy), Oxytocin
T4 construct: purchased NIMH Psychoactive Drug Screening Program (PDSP)
Experimental: as §1, §2

M1 muscarinic receptor = molecular target: T5, M1 muscarinic receptor (Homo sapiens, UniProt P11229); experiment: PDSP primary binding, M1; details: n = 4, read-out: Inhibition (primary binding competition efficacy), M1
T5 construct: purchased NIMH Psychoactive Drug Screening Program (PDSP)
Experimental: as §1, §2

[2] = Metabolic stability, cryopreserved hepatocytes, human; assay type: in vitro ADME; details: 1.0E-06 M, 2 h
α7 nAChR = details: ref Yu et al. [2012], cited from earlier work
strain TA98 = experiment: Ames test, strain TA98; assay type: cell-based
[3] = parameters: method as in Yuan et al. [2013]; details: ref Yuan et al. [2013]; cited from earlier work
[4] = molecular target: T6, KOR: Kappa Opioid Receptor (Homo sapiens, UniProt P41145); experiment: PDSP primary binding, KOR; details: n = 4, read-out: Inhibition (primary binding competition efficacy), KOR
T6 construct: purchased NIMH Psychoactive Drug Screening Program (PDSP)
Experimental: as §1, §2

5-HT1B = molecular target: T7, 5-HT1B (Homo sapiens, UniProt P28222); experiment: PDSP primary binding, 5-HT1B; details: n = 4, negative inhibition = stimulation of binding, read-out: Inhibition (primary binding competition efficacy), 5-HT1B
T7 construct: purchased NIMH Psychoactive Drug Screening Program (PDSP)
Experimental: as §1, §2

D3 dopamine receptor = molecular target: T8, D3 dopamine receptor (Homo sapiens, UniProt P35462); experiment: PDSP primary binding, D3; details: n = 4, read-out: Inhibition (primary binding competition efficacy), D3
T8 construct: purchased NIMH Psychoactive Drug Screening Program (PDSP)
Experimental: as §1, §2

D2 dopamine receptor = molecular target: T9, D2 dopamine receptor (Homo sapiens, UniProt P14416); experiment: PDSP primary binding, D2; details: n = 4, read-out: Inhibition (primary binding competition efficacy), D2
T9 construct: purchased NIMH Psychoactive Drug Screening Program (PDSP)
Experimental: as §1, §2

β1 adrenergic receptor = molecular target: T10, β1 adrenergic receptor (Homo sapiens, UniProt P08588); experiment: PDSP primary binding, β1; details: n = 4, read-out: Inhibition (primary binding competition efficacy), β1
T10 construct: purchased NIMH Psychoactive Drug Screening Program (PDSP)
Experimental: as §1, §2

M5 muscarinic receptor = molecular target: T11, M5 muscarinic receptor (Homo sapiens, UniProt P08912); experiment: PDSP primary binding, M5; details: n = 4, read-out: Inhibition (primary binding competition efficacy), M5
T11 construct: purchased NIMH Psychoactive Drug Screening Program (PDSP)
Experimental: as §1, §2

[5] = tested on: five different cytochrome P450 (CYP450) enzymes (2D6, 3A, 1A, 2C9, and 2C19); experiment: CYP450 inhibition panel (summary); assay type: in vitro ADME, human; details: in words
CYP2C19 = molecular target: T12, CYP2C19 (Homo sapiens, UniProt P33261); experiment: CYP2C19 inhibition, HLM, omeprazole substrate; assay type: in vitro ADME; details: 1.0E-05 M
T12 construct: from tissue; host or cells: human liver microsomes (HLM)
Description: as §3

D1 dopamine receptor = molecular target: T13, D1 dopamine receptor (Homo sapiens, UniProt P21728); experiment: PDSP primary binding, D1; details: n = 4, read-out: Inhibition (primary binding competition efficacy), D1
T13 construct: purchased NIMH Psychoactive Drug Screening Program (PDSP)
Experimental: as §1, §2

GABAB = experiment: PDSP primary binding, GABAB; details: 10 µM, n = 4
Experimental: as §1, §2

[6] = Metabolic stability, liver microsomes, human; assay type: in vitro ADME; details: 1.0E-06 M, 1 h
M3 muscarinic receptor = molecular target: T14, M3 muscarinic receptor (Homo sapiens, UniProt P20309); experiment: PDSP primary binding, M3; details: n = 4, read-out: Inhibition (primary binding competition efficacy), M3
T14 construct: purchased NIMH Psychoactive Drug Screening Program (PDSP)
Experimental: as §1, §2

D5 dopamine receptor = molecular target: T15, D5 dopamine receptor (Homo sapiens, UniProt P21918); experiment: PDSP primary binding, D5; details: n = 4, read-out: Inhibition (primary binding competition efficacy), D5
T15 construct: purchased NIMH Psychoactive Drug Screening Program (PDSP)
Experimental: as §1, §2

[7] = tested on: 51 other CNS neurotransmitter receptors and transporters; experiment: Broad-range screening (PDSP), summary; assay type: binding; details: 10 μmol/L
Experimental: as §1, §2

H1 histamine receptor = molecular target: T16, H1 histamine receptor (Homo sapiens, UniProt P35367); experiment: PDSP primary binding, H1; details: n = 4, read-out: Inhibition (primary binding competition efficacy), H1
T16 construct: purchased NIMH Psychoactive Drug Screening Program (PDSP)
Experimental: as §1, §2

human α7-nAChR = molecular target: T17, human α7-nAChR (Homo sapiens, UniProt P36544); experiment: Two-electrode voltage-clamp recording in Xenopus oocytes, α7; assay type: cell-based
T17 construct: expressed in transfected cells; host or cells: Xenopus oocytes (cRNA injection)
Experimental: Xenopus oocytes were injected with cRNAs encoding human nicotinic receptor subunits (α4:β2 at 1:1 ratio or α7). Three to five days after injection, oocytes were individually placed in a custom made small volume chamber and continuously perfused with oocyte Ringer's solution (OR2; 92.5 mmol/L NaCl, 2.5 mmol/L KCl, 1 mmol/L CaCl2, 1 mmol/L MgCl2, and 5 mmol/L HEPES at pH 7.5). Drugs were delivered to the oocytes through a ValveLink8.2 computer-controlled perfusion system (Automate Scientific, Inc, Berkeley, CA). The chamber was grounded through an agar KCl bridge. The oocytes were voltage-clamped at −70 mV to measure agonist-induced currents using a GeneClamp 500B amplifier (Axon Instruments, Foster City, CA). The current signal was filtered at 20 Hz with the built-in four pole low-pass Bessel filter and digitized at 100 Hz.

T17 sequence (P36544 23-502): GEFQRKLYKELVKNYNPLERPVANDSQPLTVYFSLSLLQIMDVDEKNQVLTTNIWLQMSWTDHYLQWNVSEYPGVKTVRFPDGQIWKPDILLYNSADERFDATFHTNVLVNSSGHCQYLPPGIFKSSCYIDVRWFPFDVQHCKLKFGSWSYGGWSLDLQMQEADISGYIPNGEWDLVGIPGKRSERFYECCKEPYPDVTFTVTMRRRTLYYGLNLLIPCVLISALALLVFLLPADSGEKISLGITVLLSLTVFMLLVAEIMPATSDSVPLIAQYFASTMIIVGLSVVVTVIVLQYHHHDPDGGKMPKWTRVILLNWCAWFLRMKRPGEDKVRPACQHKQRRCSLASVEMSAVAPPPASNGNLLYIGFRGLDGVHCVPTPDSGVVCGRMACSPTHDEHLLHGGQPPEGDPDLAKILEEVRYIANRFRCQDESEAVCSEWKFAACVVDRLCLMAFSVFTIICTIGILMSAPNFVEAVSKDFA
T16 sequence (P35367 whole entry): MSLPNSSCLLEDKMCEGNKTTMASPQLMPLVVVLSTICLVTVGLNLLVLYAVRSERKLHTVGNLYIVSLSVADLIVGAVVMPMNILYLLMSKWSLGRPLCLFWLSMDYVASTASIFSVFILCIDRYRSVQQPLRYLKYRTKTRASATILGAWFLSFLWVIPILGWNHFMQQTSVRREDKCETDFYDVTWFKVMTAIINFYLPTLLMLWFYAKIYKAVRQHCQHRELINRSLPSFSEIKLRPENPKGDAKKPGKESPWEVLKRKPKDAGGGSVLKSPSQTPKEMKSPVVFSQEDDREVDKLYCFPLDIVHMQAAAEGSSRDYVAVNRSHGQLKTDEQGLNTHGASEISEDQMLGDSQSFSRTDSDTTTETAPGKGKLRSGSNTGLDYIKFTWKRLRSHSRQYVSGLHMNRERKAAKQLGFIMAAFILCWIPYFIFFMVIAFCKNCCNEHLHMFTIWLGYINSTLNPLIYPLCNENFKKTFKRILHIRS
T10 sequence (P08588 whole entry): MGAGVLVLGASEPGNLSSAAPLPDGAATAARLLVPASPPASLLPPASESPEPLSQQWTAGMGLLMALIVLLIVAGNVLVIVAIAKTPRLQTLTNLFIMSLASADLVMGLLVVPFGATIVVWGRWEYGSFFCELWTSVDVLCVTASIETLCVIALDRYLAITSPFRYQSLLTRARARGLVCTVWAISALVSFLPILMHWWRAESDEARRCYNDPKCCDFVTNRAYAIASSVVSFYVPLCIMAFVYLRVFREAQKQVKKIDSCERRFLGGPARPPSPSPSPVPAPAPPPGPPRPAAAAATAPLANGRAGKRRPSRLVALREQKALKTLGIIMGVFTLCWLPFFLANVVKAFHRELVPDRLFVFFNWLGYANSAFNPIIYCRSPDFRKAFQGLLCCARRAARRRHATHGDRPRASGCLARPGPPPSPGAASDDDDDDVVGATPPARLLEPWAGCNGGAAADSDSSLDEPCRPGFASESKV
T2 sequence (P05177 2-516 limits assumed): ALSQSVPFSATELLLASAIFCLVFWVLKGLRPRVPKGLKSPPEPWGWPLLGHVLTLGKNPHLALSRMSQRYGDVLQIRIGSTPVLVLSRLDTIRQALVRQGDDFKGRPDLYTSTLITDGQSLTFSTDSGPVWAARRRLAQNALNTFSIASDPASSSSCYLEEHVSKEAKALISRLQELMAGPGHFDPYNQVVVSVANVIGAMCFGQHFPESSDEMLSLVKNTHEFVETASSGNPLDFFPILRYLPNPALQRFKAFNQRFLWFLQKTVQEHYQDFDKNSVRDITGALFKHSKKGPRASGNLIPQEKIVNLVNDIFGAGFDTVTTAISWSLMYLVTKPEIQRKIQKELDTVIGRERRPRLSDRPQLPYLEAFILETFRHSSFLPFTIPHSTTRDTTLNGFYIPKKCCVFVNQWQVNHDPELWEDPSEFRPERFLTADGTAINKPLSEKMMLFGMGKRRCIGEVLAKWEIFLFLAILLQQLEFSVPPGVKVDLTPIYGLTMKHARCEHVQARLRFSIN
T5 sequence (P11229 whole entry): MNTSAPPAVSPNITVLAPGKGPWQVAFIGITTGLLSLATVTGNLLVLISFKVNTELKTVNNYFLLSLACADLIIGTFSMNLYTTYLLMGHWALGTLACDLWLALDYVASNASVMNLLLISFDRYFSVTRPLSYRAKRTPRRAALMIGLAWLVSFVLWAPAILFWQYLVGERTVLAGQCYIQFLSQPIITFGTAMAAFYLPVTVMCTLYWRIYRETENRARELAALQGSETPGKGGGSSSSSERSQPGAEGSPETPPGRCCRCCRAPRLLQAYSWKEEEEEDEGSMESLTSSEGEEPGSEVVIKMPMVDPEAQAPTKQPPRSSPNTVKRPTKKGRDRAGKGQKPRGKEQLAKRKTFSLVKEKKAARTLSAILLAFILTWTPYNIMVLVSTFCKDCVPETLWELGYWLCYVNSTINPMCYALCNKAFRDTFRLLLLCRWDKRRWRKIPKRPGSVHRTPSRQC
T3 sequence (P28221 whole entry): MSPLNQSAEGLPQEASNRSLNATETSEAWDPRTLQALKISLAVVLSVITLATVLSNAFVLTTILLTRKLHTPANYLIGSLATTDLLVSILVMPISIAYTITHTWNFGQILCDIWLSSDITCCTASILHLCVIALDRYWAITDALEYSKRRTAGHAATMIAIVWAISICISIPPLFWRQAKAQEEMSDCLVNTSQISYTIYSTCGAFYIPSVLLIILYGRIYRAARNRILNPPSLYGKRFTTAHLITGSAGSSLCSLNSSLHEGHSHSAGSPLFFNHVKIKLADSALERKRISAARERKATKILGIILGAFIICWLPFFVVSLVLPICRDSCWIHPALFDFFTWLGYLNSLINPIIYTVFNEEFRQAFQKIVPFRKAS
T14 sequence (P20309 whole entry): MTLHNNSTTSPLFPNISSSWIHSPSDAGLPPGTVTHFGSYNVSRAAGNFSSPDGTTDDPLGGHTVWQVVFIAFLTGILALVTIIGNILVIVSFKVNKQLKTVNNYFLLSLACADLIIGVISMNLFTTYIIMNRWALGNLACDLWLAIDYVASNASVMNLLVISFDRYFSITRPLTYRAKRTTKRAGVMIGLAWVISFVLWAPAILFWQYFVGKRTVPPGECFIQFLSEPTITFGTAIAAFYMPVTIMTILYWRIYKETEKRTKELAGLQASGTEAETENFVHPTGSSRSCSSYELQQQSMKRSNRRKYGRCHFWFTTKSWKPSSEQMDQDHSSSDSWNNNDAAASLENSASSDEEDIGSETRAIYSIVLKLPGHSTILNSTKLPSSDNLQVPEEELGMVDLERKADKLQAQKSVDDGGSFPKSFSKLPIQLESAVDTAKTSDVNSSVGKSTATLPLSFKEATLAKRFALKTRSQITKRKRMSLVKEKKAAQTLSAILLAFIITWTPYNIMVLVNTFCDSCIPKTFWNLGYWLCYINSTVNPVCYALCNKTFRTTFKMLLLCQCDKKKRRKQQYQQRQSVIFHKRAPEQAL
T1 sequence (P31645 whole entry): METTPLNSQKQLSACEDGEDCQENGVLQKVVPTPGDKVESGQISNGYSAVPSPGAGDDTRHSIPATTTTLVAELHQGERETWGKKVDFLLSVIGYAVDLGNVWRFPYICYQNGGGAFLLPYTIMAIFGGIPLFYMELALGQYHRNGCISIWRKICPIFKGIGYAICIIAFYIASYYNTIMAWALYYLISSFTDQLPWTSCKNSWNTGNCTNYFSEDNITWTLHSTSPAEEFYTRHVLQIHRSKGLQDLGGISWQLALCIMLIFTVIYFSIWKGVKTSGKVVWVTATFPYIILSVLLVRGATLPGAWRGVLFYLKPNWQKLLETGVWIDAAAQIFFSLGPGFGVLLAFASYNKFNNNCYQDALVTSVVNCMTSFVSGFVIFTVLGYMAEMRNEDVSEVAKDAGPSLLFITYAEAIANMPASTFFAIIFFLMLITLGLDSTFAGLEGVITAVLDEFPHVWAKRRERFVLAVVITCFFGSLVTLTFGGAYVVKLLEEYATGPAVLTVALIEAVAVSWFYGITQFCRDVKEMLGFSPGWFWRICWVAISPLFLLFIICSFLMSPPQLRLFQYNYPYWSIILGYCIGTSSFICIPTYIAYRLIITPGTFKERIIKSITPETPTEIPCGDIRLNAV
T4 sequence (P30559 whole entry): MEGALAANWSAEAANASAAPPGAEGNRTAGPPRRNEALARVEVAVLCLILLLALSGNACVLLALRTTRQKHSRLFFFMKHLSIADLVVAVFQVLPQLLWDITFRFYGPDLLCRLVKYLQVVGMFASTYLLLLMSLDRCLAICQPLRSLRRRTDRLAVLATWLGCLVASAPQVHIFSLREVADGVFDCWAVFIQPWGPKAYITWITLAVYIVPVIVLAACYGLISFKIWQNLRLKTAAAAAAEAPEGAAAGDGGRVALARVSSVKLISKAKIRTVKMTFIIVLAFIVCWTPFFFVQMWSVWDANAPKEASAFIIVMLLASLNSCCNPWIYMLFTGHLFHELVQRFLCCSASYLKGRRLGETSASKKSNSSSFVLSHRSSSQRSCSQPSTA
T8 sequence (P35462 whole entry): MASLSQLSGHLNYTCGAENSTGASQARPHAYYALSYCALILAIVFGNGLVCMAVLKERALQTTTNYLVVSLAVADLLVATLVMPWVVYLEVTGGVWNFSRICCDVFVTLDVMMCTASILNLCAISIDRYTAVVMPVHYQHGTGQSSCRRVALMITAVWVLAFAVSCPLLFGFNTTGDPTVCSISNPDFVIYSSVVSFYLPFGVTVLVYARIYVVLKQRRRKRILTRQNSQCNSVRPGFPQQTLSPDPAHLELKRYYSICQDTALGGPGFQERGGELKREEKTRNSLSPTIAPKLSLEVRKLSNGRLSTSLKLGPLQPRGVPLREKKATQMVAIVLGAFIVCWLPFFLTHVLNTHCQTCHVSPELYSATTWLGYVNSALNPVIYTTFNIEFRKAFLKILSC

## OCCc1cc(-c2cncc(OC[C@@H]3CCN3)c2)on1 [LF-3-88, 2-[5-[5-(2(S)-azetidinylmethoxyl)-3-pyridyl]-3-isoxazolyl]ethanol]
[1]
  inhibition at 10 µM: -0.2%
CYP1A
  CYP1A Inhibition: 13%
5-HT1D
  inhibition at 10 µM: -14.9%
Oxytocin
  inhibition at 10 µM: 6.4%
M1 muscarinic receptor
  inhibition at 10 µM: 8.8%
[2]
  Remaining (metabolic stability): 92%
α7 nAChR; class symbol
  Ki α7: NA ^4 (NA: not active, defined as < 50% binding in the primary assay at 10 μmol/L)
α7 nAChR; read-out: Ki α7-nAChRs
  pKi: < 5.00
Strain TA98; strain TA98 + S9, 1.0E-04 M
  Ames test Result: Negative
Strain TA98; strain TA98 + S9, 1.0E-05 M
  Ames test Result: Negative
Strain TA98; strain TA98 + S9, 5.0E-05 M
  Ames test Result: Negative
Strain TA98; strain TA98 + S9, 5.0E-06 M
  Ames test Result: Negative
Strain TA98; strain TA98 – S9, 1.0E-04 M
  Ames test Result: Negative
Strain TA98; strain TA98 – S9, 1.0E-05 M
  Ames test Result: Negative
Strain TA98; strain TA98 – S9, 5.0E-05 M
  Ames test Result: Negative
Strain TA98; strain TA98 – S9, 5.0E-06 M
  Ames test Result: Negative
Strain TA98; with or without S9, 5, 10, 50, or 100 μmol/L
  mutagenic potential (Ames), TA98: negative
[3]
  absorption and blood-brain barrier crossing in vivo: absorbed rapidly and crossed the blood–brain barrier
[4]
  inhibition at 10 µM: 3%
5-HT1B
  inhibition at 10 µM: -7.9%
D3 dopamine receptor
  inhibition at 10 µM: 3%
D2 dopamine receptor
  inhibition at 10 µM: 17.2%
β1 adrenergic receptor
  inhibition at 10 µM: 1.7%
M5 muscarinic receptor
  inhibition at 10 µM: -9.4%
[5]
  inhibition toward five CYP450 enzymes: No significant inhibition
CYP2C19
  CYP2C19 Inhibition: 10%
D1 dopamine receptor
  inhibition at 10 µM: 5.8%
GABAB
  Inhibition (primary binding competition efficacy), GABAB: 1.1%
[6]
  Remaining (metabolic stability): 89%
M3 muscarinic receptor
  inhibition at 10 µM: 0.9%
D5 dopamine receptor
  inhibition at 10 µM: 5.8%
[7]
  inhibition across 51 other CNS neurotransmitter receptors and transporters: ≤ 50%
H1 histamine receptor
  inhibition at 10 µM: -6%
Human α7-nAChR; 20 μmol/L
  agonist activity at α7-nAChRs in oocytes: lack of agonist activity
Human α7-nAChR; concentrations as high as 20 μmol/L
  effect at α7-nAChRs in oocytes: No effect
Human α7-nAChR; responses to 100 μmol/L ACh
  antagonist activity at α7-nAChR in oocytes: weak if any antagonist activity
